Test results reported in publication PMC7407272, “Induction of Lysosome Membrane Permeabilization as a Therapeutic Strategy to Target Pancreatic Cancer Stem Cells” (Cancers, 2020).
pEC50: −log10 of the molar value.

Assays:
PDAC4 3D spheres = experiment: Viability curves on PDAC4 3D spheres; assay type: cell-based, human; conditions: 30 h
From the text: The PDAC patient-derived xenograft (PDX) Panc354 (referred to hereafter as PDAC3) was obtained from Dr. Manuel Hidalgo under a Material Transfer Agreement with the Spanish National Cancer Centre (CNIO), Madrid, Spain (Reference no. I409181220BSMH). PDAC1, PDAC2 and PDAC4 PDXs were established from primary patient resected tumors. Samples were provided by the BioBank Hospital Ramón y Cajal-IRYCIS (PT13/0010/0002), integrated in the Spanish National Biobanks Network and they were processed following standard operating procedures with the appropriate approval of the Ethical and Scientific Committees (Control no. No. Control: DE-BIOB-73 AC65, RG.BIOB-96 REV, and CI-BIOB-08-10-01 rev), with informed consent and according to Declaration of Helsinki principles. Primary patient tumors were subcutaneously implanted in immunocompromised female 6- to 8-week-old NU-Foxn1nu nude mice (Envigo, Barcelona, Spain) and subsequently passage in vivo to establish PDX PDAC1, PDAC2 and PDAC4. Primary PDX-derived in vitro cultures were established as previously detailed. […]
Pancreatic CSC spheres were generated as previously described in ultra-low attachment plates (Corning) using CSC media: serum-free DMEM/F12 medium (1:1; #21331-020; Gibco, Waltham, MA, USA), supplemented with Pen/Strep (1:100; #1500-063; Gibco, Waltham, MA, USA), Fungizone (1:250; #15290-018; Gibco), L-Glutamine (1:100; #25030-024; Gibco, Waltham, MA, USA), B-27 (1:50; #17504-044; Gibco, Waltham, MA, USA) and basic fibroblast growth factor (FGF-b) (1:5000; Gibco, Waltham, MA, USA). […] To quantify spheres of > 40 μm, 1 mL of sample volume was analyzed with a CASY® Cell Counter (Roche Applied Sciences, Mannheim, Germany). […]

[1] = mESC viability (MTS) screen and dose response; assay type: cell-based, mouse; conditions: mouse, mouse embryonic stem cells (mESCs), 5 µM, MTS
Description: (§1) Mouse embryonic stem cells were cultured in Dulbecco’s Modified Eagle Medium (DMEM) containing 15% Fetal bovine serum (FBS), non-essential amino acids (NEAA), 2-mercaptoethanol, and Leukemia inhibitory factor (LIF) and passaged on gelatinized plates under standard conditions.
(§2) Murine embryonic stem cells (mESCs) were plated at 20,000 cells per well in gelatinized 96 well plates. Compounds from the 640 compound ETP library were added by a Beckman FX 96 tip to achieve a final concentration of 5 µM in each well, and each compound was tested in duplicate. Cells were treated for a total of 30 h prior to assessing cell viability using CellTiter 96® AQueous One Solution Cell Proliferation Assay (MTS) assay according to manufacturer’s instructions (G3582, Promega, Madison, WI, USA). Dose response curves were carried out on mESCs under the same conditions using indicated compounds. To test the viability of CSCs, 10,000 PDAC cells were plated in spheroid conditions and immediately treated with indicated compounds and concentrations for the duration of the sphere formation assay. For adherent non-CSCs, 20,000 cells were plated in wells of standard tissue culture-treated plates (Corning, Corning, NY, USA) and treated the following day with indicated compounds and concentrations. For re-plated spheres (Figure S1B), 7-day-old spheres were filtered using a 40 µM filter (Fisher Scientific, Hampton, NH, USA), washed once with 1× PBS, and incubated with trypsin 0.05% EDTA at 37 °C (Thermo Fisher Scientific, Waltham, MA, USA) to achieve a single cell suspension (approximately 10–30 min, depending on the PDAC culture). Trypsinized cells were counted and 20,000 cells were plated in wells of standard tissue culture-treated plates (Corning) and treated the following day with indicated compounds and concentrations.

[2] = tested on: mouse embryonic stem cells (mESCs); experiment: mESC viability (MTS) screen and dose response; assay type: cell-based; conditions: Mus musculus, Embryonic stem cell, 30 h
Description: as §1, §2

PDAC2 cultures = experiment: Sphere formation assay; assay type: cell-based, human; conditions: 0.1 µg/mL GEM or Cpd 1 at 1.25 or 2.5 µM
From the text: (§3) Pancreatic CSC spheres were generated as previously described in ultra-low attachment plates (Corning) using CSC media: serum-free DMEM/F12 medium (1:1; #21331-020; Gibco, Waltham, MA, USA), supplemented with Pen/Strep (1:100; #1500-063; Gibco, Waltham, MA, USA), Fungizone (1:250; #15290-018; Gibco), L-Glutamine (1:100; #25030-024; Gibco, Waltham, MA, USA), B-27 (1:50; #17504-044; Gibco, Waltham, MA, USA) and basic fibroblast growth factor (FGF-b) (1:5000; Gibco, Waltham, MA, USA). All cell culture was carried out at 37 °C in a 5% CO2 humidified incubator. To quantify spheres of > 40 μm, 1 mL of sample volume was analyzed with a CASY® Cell Counter (Roche Applied Sciences, Mannheim, Germany). The CASY® Cell Counter measuring principle is based on a capillary particle counter with pulse area analysis, that permits the determination of cell count, cell concentration, cell volume (peak), and average cell diameter, specifically diameters of 40–80 μm, 80–120 μm and >120 μm.

PDAC4 cultures = experiment: Sphere formation assay; assay type: cell-based, human; conditions: 0.1 µg/mL GEM or Cpd 1 at 1.25 or 2.5 µM
From the text: as §3

[3] = tested on: sphere-derived PDAC2 cells; experiment: Tumor initiating capacity of pre-treated cells injected subcutaneously; assay type: in vivo, NU-Foxn1nu nude mice; conditions: cells treated 3 days with 0.1 µg/mL GEM or compound at 1.25 µM, then injected subcutaneously
Description: (§4) Female 6- to 8-week-old NU-Foxn1nu nude mice (Envigo, Spain) were subcutaneously injected with control or pre-treated 1 × 10^4 PDAC cells in 50 µL of Matrigel^TM (Corning). Tumor growth was monitored bi-weekly for up to 10 weeks. For Siramesine experiments, mice were subcutaneously implanted with PDAC1 and PDAC3 PDXs. After 4 weeks of tumor growth, mice were randomized into treatment groups (5 mice per group). Mice were treated with Siramesine twice a week (30 mg/kg by oral gavage formulated in 0.5% methylcellulose 15 cP in 0.9% NaCl solution) for ~4 weeks. Gemcitabine (GEMZAR®, Eli Lilly, Indianapolis, IN, USA) was administered twice a week (125 mg/kg i.p.) for ~4 weeks. Tumor volumes (mm^3) were determined twice per week using a digital caliper. Mice were sacrificed at 24 days post treatment initiation and tumors were extracted and analyzed by flow cytometry as described above. For second generation tumor formation, 1000 and 100 cells of indicated treatment groups were resuspended in Matrigel ^TM and injected subcutaneously in recipient NU-Foxn1nu nude mice and tumor formation was monitored for 10 weeks. Mice were housed according to institutional guidelines and all experiments were performed in compliance with the institutional guidelines for the welfare of experimental animals approved by the Universidad Autónoma de Madrid Ethics Committee (CEI 60-1057-A068) or by the Instituto de Salud Carlos III Ethics Committee (CBA12_2014-v3) and La Comunidad de Madrid (PROEX 335/14 or PROEX 53/14) and in accordance with the guidelines for Ethical Conduct in the Care and Use of Animals as stated in The International Guiding Principles for Biomedical Research involving Animals, developed by the Council for International Organizations of Medical Sciences (CIOMS).

PDAC1 xenografts = experiment: PDX treatment in nude mice; assay type: in vivo, NU-Foxn1nu nude mice
Description: (§5) Cells were analyzed with a 4-laser Attune NxT Acoustic Cytometer (ThermoFisher Scientific). Cells and digested tumors (as described in [41]) were resuspended in FLOW buffer (1X PBS; 3 mM EDTA (v/v); 3% FBS (v/v)), and the following fluorescently-tagged antibodies were used to label cells for 30 min at 4 °C: Mouse monoclonal anti-human CD133-PE (1:20, Cat no. 130-110-962, Miltenyi, Bergisch Gladbach, Germany), Mouse monoclonal anti-human CD133-APC (1:20, Cat no. 130-111-080, Miltenyi, Bergisch Gladbach, Germany), mouse monoclonal anti-human C-X-C chemokine receptor type 4- Phycoerythrin (CXCR4-PE) (1:20, Cat no. 130-117-354, Miltenyi, Bergisch Gladbach, Germany), or mouse monoclonal anti-human Epithelial cell adhesion molecule-fluorescein isothiocyanate (EpCAM-FITC) (1:20, Cat no. 130-111-115, Miltenyi, Bergisch Gladbach, Germany). Autofluorescent cells were excited with blue laser 488nm and selected as the intersection with the filters 530/40 and 580/30 as previously described. For lysosomes quantification, Acridine Orange (AO) (A1301, Thermo Fisher Scientific, Waltham, MA, USA) or Lysotracker Deep Red (DR) (L12492, Molecular probes, Life Technologies, Waltham, MA, USA) were used. AO fluorescence was assessed with two combinations of excitation and emission spectra: BL1 […] BL3 (Ex488/Em695/40, equal to the far-red channel (>670 nm)) Lysotracker DR fluorescence was assessed with RL1 (Ex638/Em670/14). Bafilomycin A1 (100 nM, Calbiochem, San Diego, CA, USA) was included as a positive control for lysosome disruption. For Annexin V staining, floating and attached cells were pooled and resuspended in 1× AnnexinV staining buffer containing AnnexinV-APC diluted 1:20 (Biotium, Freemont, CA, USA) and incubated for 20 min at room temperature prior to flow cytometric analysis. For all assays, DAPI was used to mark and exclude dead cells, and data were analyzed using the software FlowJo v9.3 (Tree Star Inc., Ashland, OR, USA).
as §4

PDAC3 xenografts = experiment: PDX treatment in nude mice; assay type: in vivo, NU-Foxn1nu nude mice; conditions: PDAC3 PDX; GEM 125 mg/kg i.p. biweekly, SIR 30 mg/kg oral gavage; 23 days
Description: as §5, §4

PDAC1 tumor cells = experiment: Second generation tumor formation (serial passage, ELDA); assay type: in vivo, NU-Foxn1nu nude mice
Description: as §4
(§6) Results are presented as means ± standard error of the mean (SEM) unless stated otherwise. An unpaired two-tailed t test was performed to determine significance. p values < 0.05 were considered statistically significant. All analyses were performed using GraphPad Prism version 6.0 (San Diego, California USA). CSC frequencies and significance were determined using the on-line extreme-limiting dilution assays (ELDA) program (http://bioinf.wehi.edu.au/software/elda/).

PDAC3 tumor cells = experiment: as above; assay type: in vivo, NU-Foxn1nu nude mice
Description: as §4, §6

PDAC2 3D spheres = experiment: Viability curves on PDAC2 3D spheres; assay type: cell-based, human; conditions: Homo sapiens, PDAC-2, 30 h; read-out: EC50 (viability), PDAC2 spheres
From the text: The PDAC patient-derived xenograft (PDX) Panc354 (referred to hereafter as PDAC3) was obtained from Dr. Manuel Hidalgo under a Material Transfer Agreement with the Spanish National Cancer Centre (CNIO), Madrid, Spain (Reference no. I409181220BSMH). PDAC1, PDAC2 and PDAC4 PDXs were established from primary patient resected tumors. Samples were provided by the BioBank Hospital Ramón y Cajal-IRYCIS (PT13/0010/0002), integrated in the Spanish National Biobanks Network and they were processed following standard operating procedures with the appropriate approval of the Ethical and Scientific Committees (Control no. No. Control: DE-BIOB-73 AC65, RG.BIOB-96 REV, and CI-BIOB-08-10-01 rev), with informed consent and according to Declaration of Helsinki principles. Primary patient tumors were subcutaneously implanted in immunocompromised female 6- to 8-week-old NU-Foxn1nu nude mice (Envigo, Barcelona, Spain) and subsequently passage in vivo to establish PDX PDAC1, PDAC2 and PDAC4. Primary PDX-derived in vitro cultures were established as previously detailed. Briefly, xenografts were minced, enzymatically digested with collagenase (Stem Cell Technologies) for 60 min at 37 °C and after centrifugation for 5 min at 1800 rpm, the cell pellets were resuspended and cultured in RPMI (1:1; #61870-010; Gibco, Waltham, MA, USA) supplemented with 10% FBS (Invitrogen, Waltham, MA, USA), Pen/Strep (1:100; #1500-063; Gibco, Waltham, MA, USA), and Fungizone (1:250; #15290-018; Gibco, Waltham, MA, USA). Primary cultures were tested for Mycoplasma at least every 4 weeks.
as §3
Murine embryonic stem cells (mESCs) were plated at 20,000 cells per well in gelatinized 96 well plates. Compounds from the 640 compound ETP library were added by a Beckman FX 96 tip to achieve a final concentration of 5 µM in each well, and each compound was tested in duplicate. Cells were treated for a total of 30 h prior to assessing cell viability using CellTiter 96® AQueous One Solution Cell Proliferation Assay (MTS) assay according to manufacturer’s instructions (G3582, Promega, Madison, WI, USA). Dose response curves were carried out on mESCs under the same conditions using indicated compounds. To test the viability of CSCs, 10,000 PDAC cells were plated in spheroid conditions and immediately treated with indicated compounds and concentrations for the duration of the sphere formation assay. […]

C#CCCC1(CC(=O)N2CCC(CNc3ccc4ncc(C(=O)Nc5cccc(OC(F)(F)F)c5)n4n3)CC2)N=N1 [Cpd 26, 6-({1-[2-(3-But-3-ynyl-3H-diazirin-3-yl)-acetyl]-piperidin-4-ylmethyl}-amino)-imidazo[1,2-b]pyridazine-3-carboxylic acid (3-trifluoromethoxy-phenyl)-amide]
effect on PDAC4 CSC viability (PDAC4 3D spheres): inactive

C#CCCC1(CCN2CCC(CNc3ccc4ncc(C(=O)Nc5cccc(OC(F)(F)F)c5)n4n3)CC2)N=N1 [Cpd 25, 6-({1-[2-(3-But-3-ynyl-3H-diazirin-3-yl)-ethyl]-piperidin-4-ylmethyl}-amino)-imidazo [1,2-b]pyridazine-3-carboxylic acid (3-trifluoromethoxy-phenyl)-amide]
pEC50 (PDAC4 3D spheres; Homo sapiens): 5.58

O=C(Nc1cccc(OC(F)(F)F)c1)c1cnc2ccc(N3CCCC4(CCNCC4)C3)nn12 [Cpd 3]
viability at 30 h, 5 µM [1]: 9% | pEC50 [2]: 5.82

Nc1ccn([C@@H]2O[C@H](CO)[C@@H](O)C2(F)F)c(=O)n1 [gemcitabine]
sphere-forming capacity (PDAC2 cultures): did not affect sphere formation | sphere-forming capacity (PDAC4 cultures): increased | tumor formation / growth from pre-treated cells [3]: gave rise to larger tumors | tumor volume versus control (PDAC1 xenografts; PDAC1 PDX, GEM 125 mg/kg i.p. biweekly, SIR 30 mg/kg oral gavage, 23 days): significantly reduced | autofluorescent-positive cells in tumors (PDAC1 xenografts; PDAC1 tumors, day 23, flow cytometry): marked increase | tumor volume versus control (PDAC3 xenografts): significantly reduced | CSC freq (PDAC1 tumor cells; PDAC1, Extreme Limiting Dilution Analysis, listed as GEM): 1/272 | Tumors/n (2nd generation) (PDAC1 tumor cells; PDAC1, no. cells 10^2): 5/8 | Tumors/n (2nd generation) (PDAC1 tumor cells; PDAC1, no. cells 10^3): 7/8 | CSC freq (PDAC3 tumor cells; PDAC3, Extreme Limiting Dilution Analysis, listed as GEM): 1/102 | Tumors/n (2nd generation) (PDAC3 tumor cells; PDAC3, no. cells 10^2): 5/8 | Tumors/n (2nd generation) (PDAC3 tumor cells; PDAC3, no. cells 10^3): 8/8

OC(c1cc(C(F)(F)F)nc2c(C(F)(F)F)cccc12)C1CCCCN1 (centres unmarked) [mefloquine, reference compound]
pEC50 (PDAC2 3D spheres): 5.12
